IC50 data for 1 compound are collected here from ChEMBL document CHEMBL3639029, “Pyrrolopyrimidine compounds as inhibitors of CDK4/6” (2015).

Assay [1] deals with Cyclin-dependent kinase 4 (Homo sapiens, UniProt P11802). Briefly: Biological Assay: An assay for monitoring CDK4/cyclin D1-catalyzed phosphorylation of pRb at the Ser780 site was performed using TR-FRET in a 384-well format, and was used for IC50 determination and kinetic analysis. The reaction was carried out in a 30 uL volume containing 0.3 nM CDK4/cyclin D1, 150 nM biotin-pRb (773-924), 3 uM ATP, and 1.3% DMSO (or compound in DMSO) in the assay buffer (50 mM HEPES-Na, pH 7.5; 5 mM MgCl2, 1 mM DTT, 0.02% Tween-20, and 0.05% BSA). 3 uM ATP was added last to initiate the reaction. The reaction was quenched with 10 uL of 240 mM EDTA-Na (pH 8.0) after 60 min incubation at 22 C. The signal was developed by the addition of 40 uL detection solution containing 40 nM SA-APC, 143 ng/mL anti-phospho-pRb (S780) antibody, and 1 nM Eu-W1024 anti-rabbit IgG antibody in the detection buffer (50 mM HEPES-Na, pH 7.5, 60 mM EDTA-Na, pH 8.0, 0.05% BSA, and 0.1% Triton X-100). After 60 min incubation in the dark, the plate was read on Envision. In general terms: Time-resolved FRET reads energy transfer from a long-lived donor to a nearby acceptor.

For assay [2], the target named is Cyclin-dependent kinase 1 (Homo sapiens, UniProt P06493). As to the kind of experiment: IMAP-FP (Molecular Devices Trade Mark Technology) Endpoint Assay: A 384-well microtiter IMAP-FP (Molecular Devices Trade Mark Technology) endpoint assay was used for CDK1/cyclin B kinase activity measurements. The same assay was used for IC50 determination of small molecule inhibitors. In general, the kinase reactions were carried out in 20 uL volumes in the reaction solution, which is composed of 2 uL compound (in 20% DMSO), 8 uL CDK1/cyclin B in the 1x Reaction Buffer (Molecular Devices, Cat. No. R8139), 10 uL substrate mixture of Tamra Histone-H1 peptide (Molecular Devices, Cat. No. R7384) and ATP (Amersham Pharmacia, Cat. No. 27-2056-01) in the 1x Reaction Buffer with 1 mM DTT freshly added. The final reaction mixture contains compound (inhibitor) with the concentration varying from 0.005-10 uM, 2% DMSO, 0.25 nM CDK1/cyclin B, 100 nM Tamra Histone-H1 peptide, and 20 uM ATP.All reactions were run at room temperature in black 384-well flat-bottom Costar plates (Corning, Cat. No. 3710) for 120 min then were quenched.
Cyclin-dependent kinase 1, sequence (P06493 whole entry): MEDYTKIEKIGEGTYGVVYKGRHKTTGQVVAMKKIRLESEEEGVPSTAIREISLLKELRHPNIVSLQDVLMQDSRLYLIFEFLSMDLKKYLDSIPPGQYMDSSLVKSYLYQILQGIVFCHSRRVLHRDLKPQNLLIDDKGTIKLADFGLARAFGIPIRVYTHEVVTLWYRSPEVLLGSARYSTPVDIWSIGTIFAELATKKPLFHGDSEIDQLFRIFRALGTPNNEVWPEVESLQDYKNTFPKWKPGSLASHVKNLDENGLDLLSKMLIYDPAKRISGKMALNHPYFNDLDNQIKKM

Cyclin-dependent kinase 4, sequence (P11802 whole entry): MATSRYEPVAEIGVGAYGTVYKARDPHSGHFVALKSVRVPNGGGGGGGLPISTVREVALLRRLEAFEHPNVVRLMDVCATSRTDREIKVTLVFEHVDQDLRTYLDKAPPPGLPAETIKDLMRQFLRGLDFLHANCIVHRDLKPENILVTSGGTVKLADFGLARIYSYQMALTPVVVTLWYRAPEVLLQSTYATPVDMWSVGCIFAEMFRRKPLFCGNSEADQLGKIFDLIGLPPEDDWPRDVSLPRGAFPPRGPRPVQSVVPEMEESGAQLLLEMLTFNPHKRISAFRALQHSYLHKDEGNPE

One may read the IC50 as the concentration that gives 50% inhibition. `CN(C)C(=O)c1cc2cnc(Nc3ccc(N4CC5CCC(CC4=O)N5)cn3)nc2n1-c1ccc(C(C)(C)C#N)cc1` (configuration not stated): the half-maximal inhibitory concentration (IC50) in assay [1] was 5 nM; in assay [2], over 15000 nM.
